Data as given in patent US10323007B1, “N2N N4-disubstituted quinazoline-2,4-diamines and uses thereof” (University of South Florida, priority 2016, dated 2019).
In brackets after ≈: the same amount, converted by molar mass. Where two headings read alike, the source gives them in different places.

How the values were obtained:
A. baumannii 1649 = assay: MIC assay, strain 1649; assay type: cell-based, Acinetobacter baumannii; conditions: strain 1649
Procedure: (§1) MIC and MBC assays were performed in this study as documented by us previously.^17,23,24,25 The A. baumannii strains used are detailed in Table 7.

A. baumannii 1652 = assay: minimal bactericidal concentration (MBC) assay, strain 1652; assay type: cell-based; conditions: Acinetobacter baumannii, Table 8, read-out: MBC90 1652
Description: Lead quinazolines 4, 5, 26, 29, 27, and 30 were selected to be further evaluated for antimicrobial effects. The first assay utilized was a minimal bactericidal concentration (MBC) assay, to assess whether leads compounds were bacteriostatic or bactericidal. The six lead agents were screened to identify their MBC90 towards each of the six A. baumannii isolates used in the SAR studies (Table 8), however for simplicity only the representative data for isolate 1646 is detailed below (Table 6). […] Further to this, we were able to obtain complete eradication of bacterial growth for these two compounds at 1 μM for 24 and 5 μM for 25.
as §1

[1] = system: A. baumannii 1403 biofilm; assay: biofilm eradication determination assay, strain 1403; assay type: cell-based, Acinetobacter baumannii; conditions: 90% biofilm eradication, Table 8
Procedure: These assays were performed as described by us previously,^26,24 as follows. Each of the A. baumannii strains were grown overnight in Mueller Hinton Broth (MHB). The next day these were used to seed fresh MHB to an OD600 of 0.5, with 150 μL then added to the wells of a 96 well plate and grown for 24 hours at 37° C. After 24 hours, the planktonic bacteria were carefully removed and fresh MHB was added with increasing concentrations of lead quinazolines. After incubation at 37° C. for 24 hours, planktonic cells were removed and biofilms were washed three times with phosphate buffered saline (PBS). Biofilms were then resuspended in PBS and plated for cell viability on tryptic soy agar. Biofilm recovery was assessed compared to no drug controls, and determined as percent eradication. This was used to determine MBEC90 values (Minimal Biofilm Eradication Concentration), where the viability of cells within the biofilm was reduced by 90%.

A. baumannii 1646 = assay: murine model of lethal peritonitis; assay type: in vivo, mice; conditions: 2 mg kg^-1 intraperitoneal, one hour post challenge, 5 days
Procedure: As a final assessment, we used a murine model of lethal A. baumannii infection to determine the efficacy of quinazolines in vivo. This was performed using frontrunner 5, which had the most promising properties from all of our biological testing. Accordingly, mice were inoculated with a lethal dose of A. baumannii via intraperitoneal injection on the right side of the abdomen. One hour post challenge, mice were treated with an intraperitoneal injection of 2 mg kg^−1 of frontrunner 5 on the left side of the abdomen. As a control, we also performed similar testing using 30 mg kg^−1 of tigecycline, which we already know our test strain to be susceptible to in vitro.
Characteristics of pre-moribund state include: hunched posture, rapid, shallow and/or labored breathing, ruffled fur, lethargy, failure to respond to stimuli, soiled anogenital area, paralysis, paresis, head tilt, circling, vocalizations, non-purposeful movements, and/or were unable to eat or drink. Those mice reaching this state prior to the completion of the 5-day infection period were euthanized. The number of mice surviving between control and treatment groups was compared and analyzed for statistical significance using a log-rank (Mantel-Cox) test.

## CNc1nc(NCc2ccccc2)nc2ccc(C)cc12 [Compound 5, N^2-Benzyl-N^4,6-dimethylquinazoline-2,4-diamine]
A. baumannii 1649; Acinetobacter baumannii, Table 2, read-out: 1649 MIC
  MIC: 25 µM (≈ 6.96 µg/mL)
A. baumannii 1649; Acinetobacter baumannii, lead quinazolines, Table 8, read-out: MIC 1649
  MIC: 21 µM (≈ 5.85 µg/mL)
A. baumannii 1649; Tables 1, 3, 4, 5 and footnotes, read-out: 1649 MIC
  MIC: 25 µM (≈ 6.96 µg/mL)
A. baumannii 1652
  MBC: 12 µM (≈ 3.34 µg/mL)
[1]
  MBEC90 1403: 13 µM
A. baumannii 1646
  survival rate of infected animals: 83%
